Patent publication US20250026761A1, “DIAZABICYCLOOCTANE DERIVATIVES USEFUL AS MATRIX METALLOPROTEINASE INHIBITORS” (VASA THERAPEUTICS SPÓLKA Z OGRANICZONA ODPOWIEDZIALNOSCIA, priority 2021, published 2025)

How the values were obtained:
Format in all cases: biochemical
[1] = target: T1, MMP2 (Homo sapiens, UniProt P08253); assay: MMP-2 colorimetric inhibition assay (Enzo kit); conditions: colorimetric thiopeptide substrate, absorbance 415 nm; read-out: MMP2 IC50 class
T1 construct: purchased Enzo Life Sciences, Inc. BML-AK408
T1 sequence (P08253 110-452 limits assumed): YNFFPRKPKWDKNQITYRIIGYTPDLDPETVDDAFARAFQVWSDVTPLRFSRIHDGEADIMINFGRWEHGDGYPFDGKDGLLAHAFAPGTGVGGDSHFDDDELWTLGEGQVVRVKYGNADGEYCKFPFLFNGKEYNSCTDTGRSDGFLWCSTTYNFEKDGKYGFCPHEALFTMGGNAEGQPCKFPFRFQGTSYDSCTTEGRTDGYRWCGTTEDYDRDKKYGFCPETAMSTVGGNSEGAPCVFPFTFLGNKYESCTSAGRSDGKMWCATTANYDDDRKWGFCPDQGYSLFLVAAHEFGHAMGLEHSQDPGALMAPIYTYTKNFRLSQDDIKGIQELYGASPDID
Description: (§1) The inhibitory activities of the compounds of the invention were assessed in 96-well microplate format using MMP1, MMP2, MMP9 and MMP13 colorimetric assay kits and TACE fluorometric assay kit from Enzo Life Sciences, Inc. The inhibitory effect of the compounds of the invention on ADAM10 activity were evaluated in 96-well microplate format using fluorometric assay from AnaSpec, Inc.
(§2) The MMP-2 Colorimetric Drug Discovery Kit (catalog #BML-AK408) is a complete assay system designed to screen MMP-2 inhibitors using a thiopeptide as a chromogenic substrate (Ac-PLG-[2-mercapto-4-methylpentanoyl]-LG-OC2H5). The MMP cleavage site peptide bond is replaced by a thioester bond in the thiopeptide. Hydrolysis of this bond by an MMP produces a sulfhydryl group, which reacts with DTNB [5,5′-dithiobis(2-nitrobenzoic acid), Ellman's reagent] to form 2-nitro-5-thiobenzoic acid, that can be detected spectrophotometrically.
(§3) The inhibitory activities of the compounds of the invention against MMP1, MMP2, MMP9 and MMP13 were tested according to the manufacturer's assay protocols and the absorbance at 415 nm was monitored using the Tecan Infinite® 200 Pro F Nano^+ microplate reader.
(§4) The normalized values were analyzed using GraphPadPrism 9 for Windows (GraphPad Software, San Diego, CA, USA) software by plotting inhibition curves and determining the IC50 values.
(§5) The calculated IC50 values were divided into the following classes: • A: <50 nM; B: 50-1000 nM; C: >1000-10,000 nM; D: >10,000 nM

[2] = target: T2, MMP9 (Homo sapiens, UniProt P14780); assay: MMP-9 colorimetric inhibition assay (Enzo kit); conditions: colorimetric thiopeptide substrate, absorbance 415 nm; read-out: MMP9 IC50 class
T2 construct: purchased Enzo Life Sciences, Inc. BML-AK410
T2 sequence (P14780 94-707): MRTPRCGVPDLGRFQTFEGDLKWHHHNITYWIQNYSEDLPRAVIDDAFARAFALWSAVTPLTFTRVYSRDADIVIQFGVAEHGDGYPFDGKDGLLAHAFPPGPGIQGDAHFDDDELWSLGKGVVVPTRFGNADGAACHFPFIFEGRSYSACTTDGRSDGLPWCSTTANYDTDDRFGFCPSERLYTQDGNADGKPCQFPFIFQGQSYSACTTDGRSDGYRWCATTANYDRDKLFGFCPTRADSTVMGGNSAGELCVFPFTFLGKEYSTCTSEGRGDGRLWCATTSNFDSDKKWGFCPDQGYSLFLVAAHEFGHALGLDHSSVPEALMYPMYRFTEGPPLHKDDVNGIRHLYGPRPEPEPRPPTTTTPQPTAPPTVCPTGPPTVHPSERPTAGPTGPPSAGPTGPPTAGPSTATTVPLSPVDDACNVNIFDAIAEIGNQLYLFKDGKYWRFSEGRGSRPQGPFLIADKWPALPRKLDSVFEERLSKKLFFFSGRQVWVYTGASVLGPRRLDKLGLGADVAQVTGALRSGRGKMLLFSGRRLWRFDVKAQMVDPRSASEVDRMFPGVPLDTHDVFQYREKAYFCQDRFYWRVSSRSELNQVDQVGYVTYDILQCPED
Description: as §1
as §2, with “MMP-9” for “MMP-2”, “#BML-AK410)” for “#BML-AK408)”, “screen” for “screen MMP-2”, “inhibitors of matrix metalloproteinase-9” for “inhibitors”
as §3, §4, §5

[3] = target: T3, MMP13 (Homo sapiens, UniProt P45452); assay: MMP-13 colorimetric inhibition assay (Enzo kit); conditions: colorimetric thiopeptide substrate, absorbance 415 nm; read-out: MMP13 IC50 class
T3 construct: purchased Enzo Life Sciences, Inc. BML-AK412
Description: as §1
as §2, with “MMP-13” for “MMP-2”, “#BML-AK412)” for “#BML-AK408)”, “screen” for “screen MMP-2”, “inhibitors of matrix metalloproteinase-13” for “inhibitors”
as §3, §4, §5

SMILES | IC50 [1] [µM] | IC50 [2] [µM] | IC50 [3] [µM]
O=C(Cc1ccncc1)N1CC2CCC(C(=O)NO)(C1)N2S(=O)(=O)c1cc(F)c(Oc2ccc(Cl)cc2)c(F)c1 (centres unmarked) [Example 23, 8-((4-(4-chlorophenoxy)-3,5-difluorophenyl)sulfonyl)-N-hydroxy-3-(2-(pyridin-4-yl)acetyl)-3,8-diazabicyclo[3.2.1]octane-1-carboxamide] | 0.05 to 1 | 0.05 to 1 | 
O=C(CN1CCCCC1)N1CC2CCC(C(=O)NO)(C1)N2S(=O)(=O)c1cc(F)c(Oc2ccc(Cl)cc2)c(F)c1 (centres unmarked) [Example 7, 8-((4-(4-chlorophenoxy)-3,5-difluorophenyl)sulfonyl)-N-hydroxy-3-(2-(piperidin-1-yl)acetyl)-3,8-diazabicyclo[3.2.1]octane-1-carboxamide] | 0.05 to 1 | 1 to 10 | 1 to 10
COCCOC(=O)N1CC2CCC(C(=O)NO)(C1)N2S(=O)(=O)c1ccc(NC(=O)c2ccc(OC)cc2)cc1 (centres unmarked) [Example 17, 2-methoxyethyl 1-(hydroxycarbamoyl)-8-((4-(4-methoxybenzamido)phenyl)sulfonyl)-3,8-diazabicyclo[3.2.1]octane-3-carboxylate] | 0.05 to 1 | 0.05 to 1 | 0.05 to 1
COCCOC(=O)N1CC2CCC(C(=O)NO)(C1)N2S(=O)(=O)c1ccc(OCc2ccc(F)cc2Cl)cc1 (centres unmarked) [Example 15, 2-methoxyethyl 8-((4-((2-chloro-4-fluorobenzyl)oxy)phenyl)sulfonyl)-1-(hydroxycarbamoyl)-3,8-diazabicyclo[3.2.1]octane-3-carboxylate] | > 10 | 1 to 10 | 1 to 10
COCCOC(=O)N1CC2CCC(C(=O)NO)(C1)N2S(=O)(=O)c1ccc(-c2cccc(F)c2)nc1 (centres unmarked) [Example 9, 2-methoxyethyl 8-((6-(3-fluorophenyl)pyridin-3-yl)sulfonyl)-1-(hydroxycarbamoyl)-3,8-diazabicyclo[3.2.1]octane-3-carboxylate] | 0.05 to 1 | 1 to 10 | 1 to 10
O=C(N1CCOCC1)N1CC2CCC(C(=O)NO)(C1)N2S(=O)(=O)c1cc(F)c(Oc2ccc(Cl)cc2)c(F)c1 (centres unmarked) [Example 24, 8-((4-(4-chlorophenoxy)-3,5-difluorophenyl)sulfonyl)-N-hydroxy-3-(morpholine-4-carbonyl)-3,8-diazabicyclo[3.2.1]octane-1-carboxamide] | 0.05 to 1 | 0.05 to 1 | 
O=C(c1ccncc1)N1CC2CCC(C(=O)NO)(C1)N2S(=O)(=O)c1cc(F)c(Oc2ccc(Cl)cc2)c(F)c1 (centres unmarked) [Example 3, 8-((4-(4-chlorophenoxy)-3,5-difluorophenyl)sulfonyl)-N-hydroxy-3-isonicotinoyl-3,8-diazabicyclo[3.2.1]octane-1-carboxamide] | 0.05 to 1 | 1 to 10 | 
COCCOC(=O)N1CC2CCC(C(=O)NO)(C1)N2C(=O)c1cc(F)c(Oc2ccc(Cl)cc2)c(F)c1 (centres unmarked) [Example 34, 2-methoxyethyl 8-(4-(4-chlorophenoxy)-3,5-difluorobenzoyl)-1-(hydroxycarbamoyl)-3,8-diazabicyclo[3.2.1]octane-3-carboxylate] | > 10 | > 10 | > 10
O=C(NO)C12CCC(CNC1)N2S(=O)(=O)c1cc(F)c(Oc2ccc(Cl)cc2)c(F)c1 (centres unmarked) [Example 32, 8-((4-(4-chlorophenoxy)-3,5-difluorophenyl)sulfonyl)-N-hydroxy-3,8-diazabicyclo[3.2.1]octane-1-carboxamide] | 0.05 to 1 | 1 to 10 | 
COCCOC(=O)N1C[C@H]2CC[C@@](C(=O)NO)(C1)N2S(=O)(=O)c1ccc(Oc2ccc(F)cc2)c(F)c1 [Example 30, 2-methoxyethyl (1S,5R)-8-((3-fluoro-4-(4-fluorophenoxy)phenyl)sulfonyl)-1-(hydroxycarbamoyl)-3,8-diazabicyclo[3.2.1]octane-3-carboxylate] | 0.05 to 1 | 0.05 to 1 | 
COCCOC(=O)N1CC2CCC(C(=O)NO)(C1)N2S(=O)(=O)c1cc(F)c(Oc2ccc(F)cc2)c(F)c1 (centres unmarked) [Example 2, 2-Methoxyethyl 8-((3,5-difluoro-4-(4-fluorophenoxy)phenyl)sulfonyl)-1-(hydroxy-carbamoyl)-3,8-diazabicyclo[3.2.1]octane-3-carboxylate] | 0.05 to 1 | 0.05 to 1 | 1 to 10
COCCOC(=O)N1CC2CCC(C(=O)NO)(C1)N2S(=O)(=O)c1ccc(Oc2ccc(C#N)cc2)nc1 (centres unmarked) [Example 18, 2-methoxyethyl 8-((6-(4-cyanophenoxy)pyridin-3-yl)sulfonyl)-1-(hydroxycarbamoyl)-3,8-diazabicyclo[3.2.1]octane-3-carboxylate] | 0.05 to 1 | 0.05 to 1 | 0.05 to 1
O=C(CN1CCOCC1)N1CC2CCC(C(=O)NO)(C1)N2S(=O)(=O)c1cc(F)c(Oc2ccc(Cl)cc2)c(F)c1 (centres unmarked) [Example 4, 8-((4-(4-chlorophenoxy)-3,5-difluorophenyl)sulfonyl)-N-hydroxy-3-(2-morpholinoacetyl)-3,8-diazabicyclo[3.2.1]octane-1-carboxamide] | 0.05 to 1 | 0.05 to 1 | 1 to 10
COCCOC(=O)N1C[C@@H]2CC[C@](C(=O)NO)(C1)N2S(=O)(=O)c1ccc(Oc2ccc(F)cc2)c(F)c1 [Example 31, 2-methoxyethyl (1R,5S)-8-((3-fluoro-4-(4-fluorophenoxy)phenyl)sulfonyl)-1-(hydroxycarbamoyl)-3,8-diazabicyclo[3.2.1]octane-3-carboxylate] | < 0.05 | 0.05 to 1 | 
O=C(CCN1CCOCC1)N1CC2CCC(C(=O)NO)(C1)N2S(=O)(=O)c1cc(F)c(Oc2ccc(Cl)cc2)c(F)c1 (centres unmarked) [Example 25, 8-((4-(4-chlorophenoxy)-3,5-difluorophenyl)sulfonyl)-N-hydroxy-3-(3-morpholinopropanoyl)-3,8-diazabicyclo[3.2.1]octane-1-carboxamide] | 0.05 to 1 | 0.05 to 1 | 
COCCOC(=O)N1CC2CCC(C(=O)NO)(C1)N2S(=O)(=O)c1cc(F)c(Oc2ccc(Cl)cc2)c(F)c1 (centres unmarked) [Example 1, 2-methoxyethyl 8-((4-(4-chlorophenoxy)-3,5-difluorophenyl)sulfonyl)-1-(hydroxycarbamoyl)-3,8-diazabicyclo[3.2.1]octane-3-carboxylate] | 0.05 to 1 |  | 
O=C(N1CCCCC1)N1CC2CCC(C(=O)NO)(C1)N2S(=O)(=O)c1cc(F)c(Oc2ccc(Cl)cc2)c(F)c1 (centres unmarked) [Example 6, 8-((4-(4-chlorophenoxy)-3,5-difluorophenyl)sulfonyl)-N-hydroxy-3-(piperidine-1-carbonyl)-3,8-diazabicyclo[3.2.1]octane-1-carboxamide] | 0.05 to 1 | 0.05 to 1 | 
